Values joined by “and” are separate entries in the source; they are usually repeats but may differ in a detail not shown here. Identical values can stand only once. Toxic doses and inconclusive results are not listed. The calls were made as follows: active = survival T/C of 150% or more; inactive = T/C below 125% in these data.
System: P388 leukemia ip, CD2F1 mice, survival T/C
Test: NCI In Vivo Anticancer Drug Screen. Data for tumor model P388 Leukemia (intraperitoneal) in CD2F1 (CDF1) mice
Details: endpoint: median survival time, higher = longer survival
Outline: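 Mice carrying the transplanted tumor received test compound or vehicle. Survival was recorded in each group, and the value is the treated-group measurement divided by that of the vehicle-treated control group.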

[1] = dose: 50.0 mg/kg/injection, schedule: Q01DX009 (ip), vehicle: Klucel (hydroxypropylcellulose) (HPC)
[2] = dose: 100.0 mg/kg/injection, schedule: Q01DX009 (ip), vehicle: Klucel (hydroxypropylcellulose) (HPC)
[3] = dose: 200.0 mg/kg/injection, schedule: Q01DX009 (ip), vehicle: Klucel (hydroxypropylcellulose) (HPC)
[4] = dose: 60.0 mg/kg/injection, schedule: Q01DX005 (ip), vehicle: saline with Tween-80
[5] = dose: 120.0 mg/kg/injection, schedule: Q01DX005 (ip), vehicle: saline with Tween-80
[6] = dose: 240.0 mg/kg/injection, schedule: Q01DX005 (ip), vehicle: saline with Tween-80
[7] = dose: 50.0 mg/kg/injection, schedule: Q01DX005 (ip), vehicle: saline with Tween-80
[8] = dose: 100.0 mg/kg/injection, schedule: Q01DX005 (ip), vehicle: saline with Tween-80
[9] = dose: 200.0 mg/kg/injection, schedule: Q01DX005 (ip), vehicle: saline with Tween-80
[10] = dose: 100.0 mg/kg/injection, schedule: Q04DX002 (ip), vehicle: saline with Tween-80

Measured: T/C

COC(=O)/C=C/c1c[nH]c2nccnc12
inactive: dose: 12.5 mg/kg/injection, schedule: Q01DX009 (ip), vehicle: Klucel (hydroxypropylcellulose) (HPC) 98 % of control | dose: 25.0 mg/kg/injection, schedule: Q01DX009 (ip), vehicle: Klucel (hydroxypropylcellulose) (HPC) 100 % of control | [1] 102 % of control | [2] 100 % of control | [3] 98 % of control

Cc1ccc(Cl)cc1N=Cc1ccccc1O
inactive: dose: 100.0 mg/kg/injection, schedule: Q04DX003 (ip), vehicle: saline with Tween-80 100 % of control | dose: 200.0 mg/kg/injection, schedule: Q04DX003 (ip), vehicle: saline with Tween-80 95 % of control | dose: 400.0 mg/kg/injection, schedule: Q04DX003 (ip), vehicle: saline with Tween-80 100 % of control

O=c1c2ccccc2c(Br)c(Br)c2ccccc12
inactive: [4] 106 % of control | [5] 110 % of control | [6] 109 % of control

O=C(N/N=C/c1ccc(O)c(S(=O)(=O)O)c1)C(=O)N/N=C/c1ccc(O)c(S(=O)(=O)O)c1
inactive: [1] 101 % of control | [2] 108 % of control | [3] 108 % of control

ClB1NB(Cl)NB(Cl)N1
inactive: [2] 108 % of control and 93 % of control | [3] 108 % of control and 86 % of control | dose: 400.0 mg/kg/injection, schedule: Q01DX009 (ip), vehicle: Klucel (hydroxypropylcellulose) (HPC) 109 % of control and 95 % of control

Cc1ccc(/C=C/C(=O)/C=C/c2ccc(C)o2)o1
inactive: dose: 25.0 mg/kg/injection, schedule: Q01DX005 (ip), vehicle: DMSO 107 % of control | dose: 50.0 mg/kg/injection, schedule: Q01DX005 (ip), vehicle: DMSO 104 % of control | [7] 99 % of control | dose: 100.0 mg/kg/injection, schedule: Q01DX005 (ip), vehicle: DMSO 104 % of control | [8] 96 % of control | dose: 200.0 mg/kg/injection, schedule: Q01DX005 (ip), vehicle: DMSO 97 % of control | [9] 100 % of control | dose: 400.0 mg/kg/injection, schedule: Q01DX005 (ip), vehicle: DMSO 101 % of control

C(C#Cc1ccccc1)#Cc1ccccc1
inactive: dose: 25.0 mg/kg/injection, schedule: Q01DX009 (ip), vehicle: saline with Tween-80 98 % of control | dose: 50.0 mg/kg/injection, schedule: Q01DX009 (ip), vehicle: saline with Tween-80 99 % of control | dose: 100.0 mg/kg/injection, schedule: Q01DX009 (ip), vehicle: saline with Tween-80 96 % of control | dose: 200.0 mg/kg/injection, schedule: Q01DX009 (ip), vehicle: saline with Tween-80 98 % of control

Clc1ccc2nc3c(c(N4CCCCC4)c2c1)CCCC3
inactive: [7] 105 % of control | [8] 105 % of control | [9] 100 % of control

c1ccc(CN2CCOC2)cc1
inactive: dose: 12.5 mg/kg/injection, schedule: Q01DX009 (ip), vehicle: saline 108 % of control | dose: 25.0 mg/kg/injection, schedule: Q01DX009 (ip), vehicle: saline 108 % of control | dose: 50.0 mg/kg/injection, schedule: Q01DX009 (ip), vehicle: saline 118 % of control and 124 % of control | dose: 100.0 mg/kg/injection, schedule: Q01DX009 (ip), vehicle: saline 123 % of control | dose: 200.0 mg/kg/injection, schedule: Q01DX009 (ip), vehicle: saline 116 % of control

S=C(N/N=C\c1nc2ccccc2c2ccccc12)Nc1ccc(Br)cc1
inactive: dose: 100.0 mg/kg/injection, schedule: Q04DX002 (ip), vehicle: Klucel (hydroxypropylcellulose) (HPC) 93 % of control | dose: 200.0 mg/kg/injection, schedule: Q04DX002 (ip), vehicle: Klucel (hydroxypropylcellulose) (HPC) 93 % of control | dose: 400.0 mg/kg/injection, schedule: Q04DX002 (ip), vehicle: Klucel (hydroxypropylcellulose) (HPC) 96 % of control

COn1c2ccccc2c2c1cc1ccccc1[n+]2[O-]
inactive: dose: 12.5 mg/kg/injection, schedule: Q01DX005 (ip), vehicle: Klucel (hydroxypropylcellulose) (HPC) 113 % of control | dose: 25.0 mg/kg/injection, schedule: Q01DX005 (ip), vehicle: Klucel (hydroxypropylcellulose) (HPC) 111 % of control | dose: 50.0 mg/kg/injection, schedule: Q01DX005 (ip), vehicle: Klucel (hydroxypropylcellulose) (HPC) 106 % of control | dose: 100.0 mg/kg/injection, schedule: Q01DX005 (ip), vehicle: Klucel (hydroxypropylcellulose) (HPC) 90 % of control | dose: 200.0 mg/kg/injection, schedule: Q01DX005 (ip), vehicle: Klucel (hydroxypropylcellulose) (HPC) 94 % of control

Cc1c2ccncc2c(CN2C(=O)c3ccccc3C2=O)c2c3ccccc3n(C)c12
inactive: dose: 12.5 mg/kg/injection, schedule: Q04DX002 (ip), vehicle: saline with Tween-80 102 % of control | dose: 25.0 mg/kg/injection, schedule: Q04DX002 (ip), vehicle: saline with Tween-80 100 % of control | dose: 50.0 mg/kg/injection, schedule: Q04DX002 (ip), vehicle: saline with Tween-80 98 % of control | [10] 95 % of control

COc1cccc2c1C(=O)c1c(O)c3c(c(O)c1C2=O)C[C@@](O)(C(=O)CO)C[C@@H]3OC1CC(NC(=O)CN)C(O)C(C)O1 (some centres undefined)
inactive: dose: 25.0 mg/kg/injection, schedule: Q01DX009 (ip), vehicle: other 93 % of control | dose: 50.0 mg/kg/injection, schedule: Q01DX009 (ip), vehicle: other 94 % of control | dose: 100.0 mg/kg/injection, schedule: Q01DX009 (ip), vehicle: other 96 % of control

Cc1cc(OCc2nnc3n2S(=O)(=O)c2ccccc2N3c2ccccc2)ccc1Cl
inactive: [10] 92 % of control | dose: 200.0 mg/kg/injection, schedule: Q04DX002 (ip), vehicle: saline with Tween-80 92 % of control | dose: 400.0 mg/kg/injection, schedule: Q04DX002 (ip), vehicle: saline with Tween-80 87 % of control

O=C1OCCN1c1cccc2ccccc12
inactive: [4] 95 % of control | [5] 96 % of control | [6] 93 % of control

CCC(/C=C/c1ccccc1)=N\Nc1ccccc1
inactive: [7] 104 % of control | [8] 105 % of control | [9] 104 % of control | dose: 400.0 mg/kg/injection, schedule: Q01DX005 (ip), vehicle: saline with Tween-80 98 % of control

Cc1ccc(C(=O)C[n+]2ccccc2)c(O)c1
inactive: [4] 98 % of control | [5] 100 % of control

[C-]#[N+]N=P(c1ccccc1)(c1ccccc1)c1ccccc1
inactive: dose: 60.0 mg/kg/injection, schedule: Q01DX005 (ip), vehicle: Klucel (hydroxypropylcellulose) (HPC) 107 % of control | dose: 120.0 mg/kg/injection, schedule: Q01DX005 (ip), vehicle: Klucel (hydroxypropylcellulose) (HPC) 114 % of control | dose: 240.0 mg/kg/injection, schedule: Q01DX005 (ip), vehicle: Klucel (hydroxypropylcellulose) (HPC) 122 % of control

CCOc1c(N=Nc2ccccc2Cl)c(-c2ccccc2)nn1C(=S)S
inactive: [7] 105 % of control | [8] 99 % of control

CCCCCCCCCCCCCCCC(=O)N(C(C)CCCN(CC)CC)C(C)CCCN(CC)CC (centres undefined)
inactive: dose: 1.56 mg/kg/injection, schedule: Q01DX009 (ip), vehicle: water 98 % of control | dose: 3.13 mg/kg/injection, schedule: Q01DX009 (ip), vehicle: water 100 % of control | dose: 6.25 mg/kg/injection, schedule: Q01DX009 (ip), vehicle: water 99 % of control | dose: 12.5 mg/kg/injection, schedule: Q01DX009 (ip), vehicle: water 92 % of control

CCCCCC(=O)c1c(-c2ccc(C)cc2)cc(O)c(CCCC)c1-c1ccc(C)cc1
inactive: dose: 25.0 mg/kg/injection, schedule: Q01DX005 (ip), vehicle: saline with Tween-80 108 % of control | [7] 97 % of control | [8] 104 % of control

CN1C(=O)C(=N[O-])C(=O)N(C)C1=O.CN1C(=O)C(=N[O-])C(=O)N(C)C1=O.CN1C(=O)C(=N[O-])C(=O)N(C)C1=O.[Co+3]
inactive: [7] 100 % of control | [8] 119 % of control | [9] 107 % of control
